Data reported in BindingDB's records for doi:10.1016/s0960-894x(00)00601-6 (National Cancer Istitute-Frederick Cancer Research and …, 2001).

Assays:
[1] = Inhibition of RANTES-induced migration of human embryonic kidney (CCR1/HEK) cell transfectants
[2] = molecular target: T1, C-C chemokine receptor type 1 (Homo sapiens, UniProt P32246); assay: ChEBML_40342
T1 sequence (P32246 whole entry): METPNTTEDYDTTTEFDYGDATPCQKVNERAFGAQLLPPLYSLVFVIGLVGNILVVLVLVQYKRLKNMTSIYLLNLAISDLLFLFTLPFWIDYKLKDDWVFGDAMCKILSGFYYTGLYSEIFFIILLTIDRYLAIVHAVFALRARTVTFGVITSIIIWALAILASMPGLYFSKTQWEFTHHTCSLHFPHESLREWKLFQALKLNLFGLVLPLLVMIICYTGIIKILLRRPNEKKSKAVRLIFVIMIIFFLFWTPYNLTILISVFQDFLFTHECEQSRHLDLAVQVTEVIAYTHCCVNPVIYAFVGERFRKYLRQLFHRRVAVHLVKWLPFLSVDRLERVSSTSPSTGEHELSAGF
Source text: Inhibition of RANTES-induced migration of human embryonic kidney (CCR1/HEK) cell transfectants

| SMILES | IC50 [1] | IC50 [2] |
| --- | --- | --- |
| CC(C)CCCC(C)[C@H]1CC[C@H]2[C@@H]3CCC4C[C@@H](CCC=C(c5cc(Cl)c(O)c(C(=O)O)c5)c5cc(Cl)c(O)c(C(=O)O)c5)CC[C@]4(C)[C@H]3CC[C@]12C (some centres undefined) | 0.26 µM |  |
| CC(C)CCCC(C)[C@H]1CC[C@H]2[C@@H]3CCC4C[C@@H](CCC=C(c5cc(Cl)c(O)c(C(=O)NCC(=O)O)c5)c5cc(Cl)c(O)c(C(=O)NCC(=O)O)c5)CC[C@]4(C)[C@H]3CC[C@]12C (some centres undefined) | 10 µM |  |
| [C][C]([C])[C][C][C][C]([C])[C@H]1[C][C][C@H]2[C@@H]3[C][C][C]4[C][C@@H]([C][C][C]=C(c5cc(Cl)c(O[C]c6ccc(-c7cccc(C([O])=O)c7)cc6)c(C(=O)O)c5)c5cc(Cl)c(O[C]c6ccc(-c7cccc(C([O])=O)c7)cc6)c(C(=O)O)c5)[C][C][C@]4([C])[C@H]3[C][C][C@]12[C] [5-{1-{3-carboxylato-4-[4-(3-carboxyphenyl)benzyloxy]-5-chlorophenyl}-4-[1-(1,5-dimethylhexyl)-9a,11a-dimethylperhydrocyclopenta[a]phenanthren-7-yl]-1-butenyl}-2-[4-(3-carboxyphenyl)benzyloxy]-3-chlorobenzoate] |  | 9.1 µM |
| [C][C]([C])[C][C][C][C]([C])[C@H]1[C][C][C@H]2[C@@H]3[C][C][C]4[C][C@@H]([C][C][C]=C(c5cc(Cl)c(O[C]c6cccc(B([O])O)c6)c(C(=O)O)c5)c5cc(Cl)c(O[C]c6cccc(B([O])O)c6)c(C(=O)O)c5)[C][C][C@]4([C])[C@H]3[C][C][C@]12[C] [Cosalane derivative] |  | 4 µM |
